The values below come from PMC3944923, “Intestinal Transportations of Main Chemical Compositions of Polygoni Multiflori Radix in Caco-2 Cell Model” (Evidence-based Complementary and Alternative Medicine : eCAM, 2014).

Each structure is given as a SMILES string. “Also recorded” adds a separate entry of the source.

The nature of data set [1]: Caco-2 cell monolayer transport (absorption, AP → BL), HPLC-DAD. The following applies: human.
Protocol: (§1) The cells were left to grow for 21 days to reach confluence and differentiation, so that Caco-2 cells were fully differentiated in this assay and used for further experiments.
(§2) Flux describes the movement of a substance across polarized Caco-2 monolayers either in absorptive (apical → basolateral, AP → BL) or secretary direction (basolateral → apical, BL → AP). Absorption assay was carried out in this research.
(§3) To determine the concentration of corresponding constituents in both AP and BL sides, the lyophilized samples of AP and BL sides were dissolved in quantitative methanol by ultrasound for 20 min and then filtered by 0.45 μm filtration membranes.
Data set [2] has as its system Caco-2 cell monolayer. The description is as above. Particulars: for absorption by human intestinal epithelial cells, judged from P app against atenolol and propranolol: Caco-2 monolayer, AP → BL; for recovery rate (in words): Caco-2 assay.
Protocol: as §1, §2, §3
The mark [3] stands for this setting: Caco-2, Recovery rate, total compound in donor and receiver at end / initial compound, Caco-2, 90 min, Mean ± SD, n ≥ 3.

Usually Papp stands for the rate of passage across a membrane or cell layer, normalised by area and donor concentration. `Oc1ccc(/C=C/c2cc(O)cc(O)c2)cc1` [RL, resveratrol]: in data set [1] (Caco-2), the Papp at 1.5 h turned out to be 0.0178 ×10⁻⁶ cm/s. For the same compound, in data set [1] (setting [3]), the recovery at 1.5 h is 62.4 ± 6.21%. Besides, the “absorption by human intestinal epithelial cells, judged from P app against atenolol and propranolol” value in data set [2] is given as “partly absorbed”.

The compound `OC[C@H]1O[C@@H](Oc2c(O)cc(O)cc2/C=C/c2ccc(O)cc2)[C@H](O)[C@@H](O)[C@@H]1O` [TSG, 2,3,5,4′-tetrahydroxystilbene-2-O-β-D-glucoside] returned a Papp at 1.5 h in data set [1] (Caco-2) of 0.00237 ×10⁻⁶ cm/s. For the same compound, the recovery at 1.5 h in data set [1] (setting [3]) came to 17.4 ± 1.6%. Besides, in data set [2], the “recovery rate (in words)” value is given as “poor recovery rates; also recorded: low recovery rates”; the “absorption by human intestinal epithelial cells, judged from P app against atenolol and propranolol” value is listed as “hardly absorbed; also recorded: poorly absorbed”.

Consider `O=C1c2cccc(O)c2C(=O)c2c(O)cc(CO)cc21` [AE, aloe-emodin], for which, in data set [1] (Caco-2), the Papp at 1.5 h is 0.0195 ×10⁻⁶ cm/s and the recovery at 1.5 h was found to be 42.4 ± 6.32%. Also, the “absorption by human intestinal epithelial cells, judged from P app against atenolol and propranolol” value in data set [2] is on record as “partly absorbed”.

In data set [1] (Caco-2), `CC(C)NCC(O)COc1cccc2ccccc12` (stereo not drawn) [PR, Propranolol, reference compound] displayed a Papp at 1.5 h of 0.0607 ×10⁻⁶ cm/s. In addition, the recovery at 1.5 h in data set [1] (setting [3]) was roughly 100%.

In turn, `O=C(O)c1cc(O)c2c(c1)C(=O)c1cccc(O)c1C2=O` [RN, rhein] gave a Papp at 1.5 h in data set [1] (Caco-2) of 0.0171 ×10⁻⁶ cm/s. The compound further registered a recovery at 1.5 h in data set [1] (setting [3]) of roughly 100%. Further, the “absorption by human intestinal epithelial cells, judged from P app against atenolol and propranolol” value in data set [2] is “partly absorbed”.

In data set [1] (Caco-2), `Cc1cc(O)c2c(c1)C(=O)c1cc(O)cc(O)c1C2=O` [EN, emodin] had a Papp at 1.5 h of 0.00248 ×10⁻⁶ cm/s and a recovery at 1.5 h of 14.5 ± 2.5%. For the same compound, the “recovery rate (in words)” value in data set [2] is “poor recovery rates; also recorded: low recovery rates”.

Regarding `OC[C@H]1O[C@@H](Oc2cc(O)cc(/C=C/c3ccc(O)cc3)c2)[C@H](O)[C@@H](O)[C@@H]1O` [PL, polydatin], the Papp at 1.5 h in data set [1] (Caco-2) worked out at 0.00492 ×10⁻⁶ cm/s. This compound came in with a recovery at 1.5 h in data set [1] (setting [3]) of 59.9 ± 9.9%. In addition, the “absorption by human intestinal epithelial cells, judged from P app against atenolol and propranolol” value in data set [2] is reported as “hardly absorbed”.
